In ChEMBL document CHEMBL5380876, “Non-fused imidazole-biphenyl analogs repress triple-negative breast cancer growth by mainly stabilizing the c-MYC G-quadruplex via a multi-site binding mode” (Bioorg Med Chem, 2023):
The source made the active and inactive calls. The calls are words filed in the database; no cut-off is given here.

Key:
[1] = tested on: Quadruplex DNA; assay: Stabilization of c-Myc G4 quadruplex DNA (unknown origin) assessed as temperature at 50% protein unfold by circular dichroism melting assay; assay type: nucleic-acid assay
[2] = tested on: MDA-MB-231; assay: Antitumor activity against human MDA-MB-231 cells xenografted in BALB/c nude mouse assessed as reduction in tumor weight at 2 mg/kg, ip administered every other day for 20 days and measured every 4 days; assay type: functional, organism-based; conditions: time 20.0 day
[3] = Toxicity in BALB/c mouse xenografted with human MDA-MB-231 cells assessed as effect on body weight at 2 mg/kg, ip administered every other day for 20 days and measured every 4 days; assay type: organism-based; conditions: in vivo, 480 h, time 20 day
[4] = tested on: Quadruplex DNA; assay: Stabilization of c-Myc G4 quadruplex DNA (unknown origin) assessed as temperature at which 50% protein unfold by circular dichroism melting assay; assay type: nucleic-acid assay
[5] = tested on: HeLa; assay: Cytotoxicity against human HeLa cells assessed as reduction in cell viability by CCK8 assay; assay type: functional, cell-based
[6] = tested on: A549; assay: Cytotoxicity against human A549 cells assessed as reduction in cell viability by CCK8 assay; assay type: functional, cell-based
[7] = tested on: HCC1806; assay: Cytotoxicity against human HCC1806 cells assessed as reduction in cell viability by CCK8 assay; assay type: functional, cell-based
[8] = tested on: KYSE-30; assay: Cytotoxicity against human KYSE-30 cells assessed as reduction in cell viability by CCK8 assay; assay type: functional, cell-based
[9] = tested on: MDA-MB-231; assay: Cytotoxicity against human MDA-MB-231 cells assessed as reduction in cell viability by CCK8 assay; assay type: functional, cell-based
[10] = Cytotoxicity against human MCF-10A cells assessed as reduction in cell viability by CCK8 assay; assay type: toxicity, cell-based

| Structure (SMILES) | T [1] [°C] | T [4] [°C] | Activity [2] | Activity [3] | IC50 [5] [µM] | IC50 [6] [nM] | IC50 [7] [µM] | IC50 [8] [nM] | IC50 [9] [nM] | IC50 [10] [µM] |
| --- | --- | --- | --- | --- | --- | --- | --- | --- | --- | --- |
| CN1CCN(c2ccc(-c3nc(-c4ccc(C(F)(F)F)cc4)[nH]c3-c3ccc(N4CCN(C)CC4)cc3)cc2)CC1 | 28.4 | – | – | – | – | – | – | – | – | – |
| COc1cccc2c1C(=O)c1c(O)c3c(c(O)c1C2=O)C[C@@](O)(C(=O)CO)C[C@@H]3O[C@H]1C[C@H](N)[C@H](O)[C@H](C)O1 [DOXORUBICIN] | – | – | Active | Toxic | – | – | – | – | – | – |
| CN1CCN(c2ccc(-c3nc(-c4ccc(-c5ccccc5C(F)(F)F)cc4)[nH]c3-c3ccc(N4CCN(C)CC4)cc3)cc2)CC1 | – | 29.6 | – | – | 3.55 | 1700 | 1.9 | 2210 | 2430 | > 20 |
| COc1ccccc1-c1ccc(-c2nc(-c3ccc(N4CCN(C)CC4)cc3)c(-c3ccc(N4CCN(C)CC4)cc3)[nH]2)cc1 | – | 23.5 | – | – | > 20 | 7510 | > 20 | 8640 | 8190 | > 20 |

Now from value to molecule, other results behind:

| T [1] [°C] | T [4] [°C] | Structure (SMILES) | Activity [2] | Activity [3] | IC50 [5] [µM] | IC50 [6] [nM] | IC50 [7] [µM] | IC50 [8] [nM] | IC50 [9] [nM] | IC50 [10] [µM] |
| --- | --- | --- | --- | --- | --- | --- | --- | --- | --- | --- |
| – | 36.8 | CN1CCN(c2ccc(-c3nc(-c4ccc(-c5ccccc5)cc4)[nH]c3-c3ccc(N4CCN(C)CC4)cc3)cc2)CC1 | – | – | 8.92 | 2510 | 5.68 | 3860 | 3690 | 9.23 |
| – | 36.2 | COc1ccc(-c2ccc(-c3nc(-c4ccc(N5CCN(C)CC5)cc4)c(-c4ccc(N5CCN(C)CC5)cc4)[nH]3)cc2)cc1 | – | – | 5.49 | 2420 | 3.74 | 2500 | 2690 | 9.69 |
| – | 34.4 | CN1CCN(c2ccc(-c3nc(-c4ccc(-c5ccccn5)cc4)[nH]c3-c3ccc(N4CCN(C)CC4)cc3)cc2)CC1 | – | – | 12.3 | 1940 | 7.09 | 2790 | 2190 | 7.75 |
